From ChEMBL document CHEMBL1150841, “Mirabilin G: a new alkaloid from a southern Australian marine sponge, Clathria species” (J Nat Prod, 2001)
Activity calls are given as the source filed them.

Columns and labels:
Format in all cases: functional, organism-based
Escherichia coli = assay: Antimicrobial activity against Escherichia coli
Serratia marcescens = assay: Antimicrobial activity against Serratia marcescens
Saccharomyces cerevisiae = assay: Antimicrobial activity against Saccharomyces cerevisiae

Measured: inhibition

CCCC/C=C/C1=C2NC(=N)N[C@H]3CC[C@@H](C[C@@H]1C)[C@@H]23
active: all assays above
